Measurements as given in patent US12617752B2, “Rapidly metabolized lipid compound” (Beijing Jitai Life Sciences Ltd, priority 2023, dated 2026).

Key:
[1] = Particle size and PDI of lipid nanoparticles by dynamic light scattering; format: physicochemical; settings: lipid nanoparticles with luciferase mRNA; ionizable lipid/cholesterol/DSPC/DMG-PEG2000 50/38.5/10/1.5 mol%
Method: (§1) Lipid nanoparticles were prepared by (1) dissolving and mixing ionizable lipid compounds, cholesterol, phospholipids and polyethylene glycolated lipids in ethanol at (molar percentages) 50%, 38.5%, 10% and 1.5%, respectively; (2) dissolving the mRNA active ingredient in 25 mM sodium acetate solution (pH=4.5); (3) using an automated high-throughput microfluidic system to mix the organic phase containing the lipid mixture and the aqueous phase containing the mRNA component in the flow ratio range of 1:1 to 1:4 at a mixing speed of 10 mL/min to 18 mL/min; (4) the prepared lipid nanoparticles (N/P ratio=6) were diluted with phosphate buffer solution and the nanoparticle solutions were ultrafiltered to the original preparation volume using ultrafiltration tubes (purchased from Millipore) with a cut-off molecular weight of 30 kDa; and (5) the obtained nanoparticles were filtered through a sterile 0.2 μm filter membrane and then stored in a sealed glass vial at low temperature.
(§2) The particle size and particle size dispersity index (PDI) of the prepared lipid nanoparticles were measured using a Zetasizer Pro (purchased from Malvern Instruments Ltd) and a DynaPro NanoStar (purchased from Wyatt) dynamic light scattering instrument. The degree of RNA encapsulation by lipid nanoparticles was characterized by the Encapsulation Efficiency %, which reflects the degree of binding of lipid nanoparticles to RNA fragments. This parameter was measured by the method of Quant-it™ RiboGreen RNA Assay (purchased from Invitrogen). Lipid nanoparticle samples were diluted in TE buffer (10 mM Tris-HCl, 1 mM EDTA, pH=7.5). A portion of the sample solution was removed, to which 0.5% Triton (Triton X-100) was added, and then allowed to stand at 37° C. for 30 minutes. Immediately after the addition of RIBOGREEN® reaction solution, the fluorescence values were read on a Varioskan LUX multifunctional microplate reader (purchased from Thermofisher) at 485 nm for absorption and 528 nm for emission to give the encapsulation efficiency values.

C57BL/6 mice = test: In vivo delivery of luciferase mRNA lipid nanoparticles in mice (bioluminescence imaging); settings: intravenous, single dose 0.5 mg/kg luciferase mRNA
Method: The delivery effect and safety of nanoparticles encapsulated with luciferase mRNA (Trilink, L-7202) in mice were evaluated. The test mice were SPF-grade C57BL/6 mice, female, 6-8 weeks old, weighing 18-22 g, and were purchased from SPF (Beijing) Biotechnology Co., Ltd. All animals were acclimatized for more than 7 days prior to the experiment, and had free access to food and water during the experiment. The conditions include alternating light and dark for 12/12 h, the indoor temperature of 20-26° C. and the humidity of 40-70%. The mice were randomly grouped. The lipid nanoparticles encapsulated with luciferase mRNA prepared above were injected into mice by intravenous administration at a single dose of 0.5 mg/kg mRNA, and the mice were subjected to in vivo bioluminescence assay using a Small Animal In Vivo Imaging System (IVIS LUMINA III, purchased from PerkinElmer) at 6 h after administration. The assay was performed as follows: D-luciferin solution was prepared in saline at a concentration of 15 mg/mL, and each mouse was given the substrate by intraperitoneal injection. At ten minutes after administration of the substrate, the mice were anesthetized in an anesthesia chamber with isoflurane at a concentration of 2.5%. The anesthetized mice were placed in IVIS for fluorescence imaging, and data acquisition and analysis were performed on the concentrated distribution area of fluorescence.
The in vivo delivery efficiency of lipid nanoparticle carriers was expressed as the mean values of fluorescence intensity and total photon count in different animals within the same subject group, as shown in Table 5-Table 11. Higher values of fluorescence intensity and total photon count indicate higher in vivo delivery efficiency of this mRNA fragment by lipid nanoparticles. The lipid nanoparticles containing the cationic lipids of the present disclosure have good in vivo delivery efficiency.

[2] = Encapsulation efficiency of lipid nanoparticles (Quant-it RiboGreen RNA Assay); format: physicochemical; settings: lipid nanoparticles with luciferase mRNA
Method: as §1, §2

| SMILES | Particle size (nm) [1] | Particle-size distribution (PDI) [1] | Total photon count in vivo at 6 hours after administration (Total Flux) (C57BL/6 mice) | Encapsulation efficiency (%) [2] |
| --- | --- | --- | --- | --- |
| CCCCCCCCCCC(=O)OCC(C)(C)CCCCCN(CCCCO)CCCCCCC(=O)OCC(CCCCCCCCC)CCCCCCCCC [78b] | 98.88 nm | 0.12 | 5.51E+10 | 92.27% |
| CCCCCCCCCCOC(=O)OCCCCCCN(CCCCO)CCCCCC(C)(C)COC(=O)CC(CCCCCCC)CCCCCCC [30b] | 115.83 nm | 0.08 | 4.03E+10 | 95.02% |
| CCCCCCCCCCCCOC(=O)CCCCCN(CCO)CCCCCCC(C)(C)C(=O)OC(CCCCCCCCC)CCCCCCCCC [24a] | 109.53 nm | 0.052 | 3.07E+10 | 88.89% |
| CCCCCCCCCC(=O)OCCC(C)(C)CCCCCN(CCCCO)CCCCCCC(=O)OCCC(CCCCCCCC)CCCCCCCC [109b] | 95.32 nm | 0.13 | 1.90E+11 | 93.00% |
| CCCCCCCCCC(=O)OCC(C)(C)CCCCCN(CCCCCCCC(=O)OC(CCCCCCCC)CCCCCCCC)C(=O)SCCCCN(C)C [38b] | 102.50 nm | 0.11 | 1.49E+10 | 98.29% |
| CCCCCCCCCC(CCCCCCCCC)OC(=O)CCCCCCCN(CCO)CCCCCC(C)(C)COC(=O)CCCC(CCCCCC)CCCCCC [66b] | 81.83 nm | 0.17 | 4.35E+10 | 97.18% |
| CCCCCCCCCCC(=O)OCCCC(C)(C)CCCN(CCO)CCCCCCC(=O)OCC(CCCCCCCCC)CCCCCCCCC [95b] | 84.62 nm | 0.15 | 2.44E+10 | 95.41% |
| CCCCCCCCCOC(=O)CCCCCCCN(CCO)CCCCCC(C)(C)CC(=O)OC(CCCCCCCC)CCCCCCCC [9a] | 103.03 nm | 0.031 | 2.06E+10 | 89.64% |
| CCCCCCCCCCCOC(=O)OCCCCN(CCO)CCCCCCC(C)(C)C(=O)OCCC(CCCCCC)CCCCCC [38a] | 114.03 nm | 0.13 | 1.39E+10 | 94.51% |
| CCCCCCCCCC(=O)OCCCC(C)(C)CCCN(CCCO)CCCCCCCCC(=O)OCC(CCCCCC)CCCCCC [112b] | 175.67 nm | 0.17 | 1.31E+10 | 69.74% |
| CCCCCCCCCC(=O)OCCCC(C)(C)CCCN(CCO)CCCCCCCC(=O)OCC(CCCCCCC)CCCCCCC [57b] | 98.23 nm | 0.18 | 3.86E+10 | 94.15% |
| CCCCCCCCCC(=O)OCCC(C)(C)CCCCN(CCCCO)CCCCCCC(=O)OCCC(CCCCCCC)CCCCCCC [104b] | 135.57 nm | 0.09 | 3.20E+10 | 91.51% |
| CCCCCCCCCCCC(=O)OCC(C)(C)CCCCCN(CCCO)CCCCCCCCC(=O)OCC(CCCCCCCC)CCCCCCCC [88b] | 98.16 nm | 0.12 | 4.51E+10 | 94.68% |
| CCCCCCCCCC(=O)OCCCC(C)(C)CCCN(CCO)CCCCCCC(=O)OCCCC(CCCCCC)CCCCCC [75b] | 91.60 nm | 0.19 | 7.05E+10 | 95.99% |
| CCCCCCCCCOC(=O)OCCCCCCN(CCO)CCCCCCC(C)(C)C(=O)OCC(CCCCCCC)CCCCCCC [33a] | 111.60 nm | 0.17 | 1.09E+11 | 86.98% |
| CCCCCCCCCCC(=O)OCCCC(C)(C)CCCN(CCO)CCCCCCCC(=O)OCCC(CCCCCCC)CCCCCCC [80b] | 93.39 nm | 0.18 | 8.94E+10 | 93.59% |
| CCCCCCCCCCCOC(=O)CCCCCN(CCO)CCCCCCC1(C(=O)OC(CCCCCCCC)CCCCCCCC)CCCC1 [22a] | 99.48 nm | 0.010 | 1.74E+10 | 97.25% |
| CCCCCCCCCC(=O)OCC1(CCCCCN(CCCO)CCCCCCCC(=O)OCC(CCCCCCC)CCCCCCC)CC1 [58b] | 112.93 nm | 0.15 | 6.17E+10 | 92.88% |
| CCCCCCCCCCOC(=O)CCCCCCCN(CCO)CCCCCC(C)(C)COC(=O)CC(CCCCCCC)CCCCCCC [19b] | 109.53 nm | 0.036 | 6.13E+10 | 83.01% |
| CCCCCCCCCOC(=O)CCCCCCCN(CCO)CCCCC(C)(C)COC(=O)OCC(CCCCCCC)CCCCCCC [51a] | 92.08 nm | 0.15 | 3.11E+10 | 94.81% |
| CCCCCCCCCCOC(=O)OCCCCCN(CCO)CCCCCCC(C)(C)C(=O)OC(CCCCCCCC)CCCCCCCC [31a] | 115.56 nm | 0.11 | 7.04E+10 | 86.08% |
| CCCCCC#CCCOC(=O)CCCCCCCN(CCO)CCCCCCC(C)(C)C(=O)OC(CCCCCCCC)CCCCCCCC [55a] | 126.17 nm | 0.16 | 1.96E+10 | 73.85% |
| CCCCCCCCCC(=O)OCCC(C)(C)CCCCN(CCO)CCCCCCC(=O)OCCC(CCCCCCC)CCCCCCC [102b] | 92.12 nm | 0.16 | 7.52E+10 | 93.92% |
| CCCCCCCCCCOC(=O)OCCCCCCN(CCO)CCCCCCC(C)(C)C(=O)OC(CCCCCCCCC)CCCCCCCCC [48a] | 81.22 nm | 0.16 | 8.16E+10 | 96.13% |
| CCCCCCCCCC(=O)OCCC(C)(C)CCCCCN(CCO)CCCCCCC(=O)OCC(CCCCCCCCC)CCCCCCCCC [106b] | 88.22 nm | 0.15 | 1.42E+11 | 94.89% |
| CCCCCCCCCCOC(=O)CCCCC(C)(C)CCN(CCO)CCCCCCCC(=O)OCC(CCCCCCCC)CCCCCCCC [65a] | 95.88 nm | 0.16 | 6.53E+10 | 95.93% |
| CCCCCCCCCCOC(=O)OCCCCCCN(CCO)CCCCCC(C)(C)COC(=O)CC(CCCCCCC)CCCCCCC [27b] | 91.10 nm | 0.18 | 5.59E+10 | 97.83% |
